Assay results as given in US9809640B2, “ApoE peptide dimers and uses thereof” (priority 2010, dated 2017).
pEC50, pIC50: −log10 of the molar value. Positions of bridges follow the written chain, without caps; N, C: chain ends. Chains are numbered I, II in the order given.

Key:
BV2 microglia cells = assay: LPS-induced nitric oxide production in BV2 microglia cells; format: cell-based
Description: FIG. 1. COG 112 inhibits LPS-induced production of inflammatory cytokines in BV2 microglia cells. Inhibition curves for COG112 in the production of NO (green squares), TNFα (red diamonds), and IL-6 (blue triangles) by BV2 microglia. Compounds were added to the final concentrations indicated on the graph along with 100 ng/mL of LPS. After 24 hours the media was removed and assayed by two-site ELISA (BioSource) and quantitated relative to a standard curve on the same plate.
FIG. 3. NO Inhibition curve for COG449. BV2 microglia were treated with COG449 at the final concentrations indicated on the graph, along with 100 ng/mL of LPS. After 24 hours the media was removed and assayed by two-site ELISA (BioSource) and quantitated relative to a standard curve on the same plate.
We also evaluated the various peptides for efficacy in suppressing nitric oxide production induced by LPS stimulation of BV2 microglia cells as a measure of anti-inflammatory activity as well as the maximum dose tolerated in mice (Table I and FIG. 6A). For the LPS assay, EC50 is the concentration of compound that caused a 50% suppression of nitric oxide release from BV2 cells following LPS stimulation. For mouse toxicity, MTD is the maximum dose of the compound that can be given by intravenous injection without causing deaths after 24 hrs. […] Coupling the ApoE domain to a protein transduction domain further enhanced the potency of the dimers.
Low passage BV2 microglial cell cultures are maintained in 10% HI (Heat Inactivated) FBS DMEM media (supplemented with MEM NEAA (Non-Essential Amino Acids), sodium pyruvate and Pen-Strep) and continuously cultured until needed. To determine the IC50 values for NO production, peptides are added to BV2 cultures in 1% HI FBS DMEM media (supplemented with MEM NEAA and sodium pyruvate) at a range of final assay concentrations from 1.0 μM in 2 fold dilutions to 7.8 nM followed immediately by addition of LPS (100 ng/mL final concentration) as previously described (Laskowitz et al. (2001) Exp Neurol, Vol. 167(1): 74-85). After incubating for 18±1 hours, conditioned media is removed for analysis of nitrite (the stable oxidation product of released nitric oxide) by the Griess colorimetric assay (Promega). Remaining cells are assayed for viability in an MTT assay (Promega) and the nitrite assay values are normalized for each concentration using the percent viability of cells in the MTT assay. […] Typically, the absence of LPS exposure to BV2 cells results in levels below the limit of detection in our assays. Similarly, addition of any of the peptides up to 25 μM without LPS results in undetectable NO levels.

Akt = assay: EGF-induced Akt activation, Western blot; format: cell-based
From the text: FIGS. 10A-10B. […] FIG. 10A: Western blot analysis of U87 glioblastoma cells exposed to the indicated concentrations of COG445 peptide in the presence of EGF. The blot is probed with antibodies for the activated EGF receptor (P-EGFR), total EGF receptor, activated PDK1 (P-PDK1), and total PDK1. FIG. 10B: Western blot and densitometry analysis of Akt activation induced by EGF in U87 cells in the presence of increasing concentrations of COG445.
Akt signaling is often dysregulated in cancers thereby promoting cellular survival and proliferation. […] Given the effect of ApoE peptides on other inflammatory pathologies, we investigated the effect of an ApoE peptide dimer on Akt signaling in breast and brain cancer cells. A disulfide dimer of COG112 (SEQ ID NO: 1) was prepared as described in Example 1 (COG445). Adherent breast cancer cells, MDA-MB-231 (MB231), or glioblastoma cells, U87-MG (U87), were serum starved overnight and then exposed to COG445 for 2 hours before stimulating with epidermal growth factor (EGF) for 5 minutes. […] EGFR activation results in the activation of the PI3K/Akt signaling pathway, which is mediated by PDK1 activation.

PP2A = assay: Phosphatase activity of PP2A immunoprecipitated from MDA-MB-231 cells; format: cell-based; details: concentrations ≧100 nM, EGF-stimulated MB231
From the text: (§1) FIG. 12A: Total PP2A activity immunoprecipitated from MDA-MB-231 cells treated with EGF and increasing concentrations of COG445. FIG. 12B: Western blot and densitometry analysis of total c-myc protein levels in U87 cells treated with the indicated concentrations of COG445 in the presence or absence of okadaic acid. FIG. 12C: Immunoprecipitation of the catalytic subunit of PP2A from MDA-MB-231 cells exposed to EGF and two different concentrations of COG445. The blot is probed for I2PP2A (SET) and PP2A catalytic subunit.
(§2) To further characterize the effect of COG445 on PP2A activity, MB231 cells were treated as above and the phosphatase activity of immunoprecipitated PP2A was measured. EGF stimulation caused a significant decrease in total PP2A activity compared to untreated serum starved cells (FIG. 12A). […] To further explore the extent of PP2A activation in response to COG445, total c-myc protein levels were determined by western blot analysis. C-myc is a substrate for PP2A and upon dephosphorylation is metabolized by ubiquitination and proteasomal degradation. In both U87 (FIG. 12B) and MB231 (data not shown) cell lines, c-myc levels decreased after a two-hour exposure to COG445 in a dose-dependent manner, reaching statistical significance at 1000 nM.

c-myc = assay: Total c-myc protein levels, Western blot; format: cell-based
From the text: as §1, §2

[1] = biological target: recombinant human PP2A catalytic subunit (Homo sapiens, UniProt P67775); assay: Recombinant human PP2A catalytic subunit activity; format: biochemical; details: up to 10 μM
Chain of recombinant human PP2A catalytic subunit (P67775 whole entry): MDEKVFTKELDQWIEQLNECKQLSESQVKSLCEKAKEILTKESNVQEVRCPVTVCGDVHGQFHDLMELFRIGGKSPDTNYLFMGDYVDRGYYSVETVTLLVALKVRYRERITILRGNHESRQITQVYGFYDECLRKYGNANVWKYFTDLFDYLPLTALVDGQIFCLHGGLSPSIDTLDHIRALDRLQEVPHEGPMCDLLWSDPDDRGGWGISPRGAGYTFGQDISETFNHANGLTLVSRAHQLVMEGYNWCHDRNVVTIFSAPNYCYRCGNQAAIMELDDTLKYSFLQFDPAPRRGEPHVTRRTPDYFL
Description: To examine the mechanism of COG445 on PP2A activity, recombinant human PP2A catalytic subunit was incubated with COG445 and activity was measured. […] To further explore the changes of PP2A protein complexes, co-immunoprecipitation experiments were performed on MB231 cells.

mTOR = mTOR phosphorylation in MB231 cells, Western blot; format: cell-based; details: markedly reduced at ≧100 nM
From the text: FIG. 13A: Western blot and densitometry analysis of phosphorylated m-TOR levels in MDA-MB-231 cells treated with EGF and the indicated concentrations of COG445 in the presence or absence of okadaic acid. FIG. 13B: Western blot analysis of phosphorylated GSK-3β levels in MDA-MB-231 cells treated with EGF and the indicated concentrations of COG445 in the presence or absence of okadaic acid.
Akt exerts its proliferative signal by phosphorylating protein substrates such as mTOR and GSK-3β. To examine the effects of COG445 on downstream Akt signaling in MB231 cells, mTOR activation and GSK-3β inhibition was measured by western blot analysis. […] The reduction in mTOR and GSK-3β phosphorylation was eliminated in the presence of okadaic acid, further evidence that PP2A mediates the effects of COG445 on Akt signaling.

**Q.** Which results are given for “I: Ac-RQIKIWFQNRRMKWKKCLRVRLASHLRKLRKRLL-NH2 / II: Ac-RQIKIWFQNRRMKWKKCLRVRLASHLRKLRKRLL-NH2 (disulfide I:17-II:17) [COG445, COG112-C-C-COG112]”?
**A.** pEC50 (BV2 microglia cells; 50% suppression of nitric oxide release from BV2 cells following LPS stimulation): > 6.00; pIC50 (BV2 microglia cells; BV2 cells, LPS 100 ng/mL, read-out: IC50 for NO production/release): 7.70; Akt serine 473 phosphorylation (Akt; 100 nM, both cell lines, significant at 1 μM): decreased; Akt activation (Akt; MB231 and U87 cells, EGF): dose-dependent decrease; Akt phosphorylation in the presence of okadaic acid (Akt; MB231 cells): did not inhibit; PP2A activity (PP2A): significant (P<0.01) increase; c-myc levels in the presence of OA (c-myc): unaltered; c-myc levels (c-myc; two-hour exposure, U87 and MB231, significant at 1000 nM): decreased; rate of phosphatase activity [1]: did not have any effect; mTOR phosphorylation upon EGF stimulation (mTOR): dose-dependent decrease
